Data published in paper PMC9030223, “MBP-11901 Inhibits Tumor Growth of Hepatocellular Carcinoma through Multitargeted Inhibition of Receptor Tyrosine Kinases” (Cancers, 2022).
Values joined by “and” are separate entries in the source; they are usually repeats but may differ in a detail not shown here. Equal values may be shown once. Read-outs that look alike come from different tables or passages of the source.

How the values were obtained:
HepG2 cells [1] = experiment: Flow cytometry analysis of cell death (sub-G1); format: cell-based, human; conditions: 50 μM
Description: Approximately 1.5 × 10^6 HepG2 cells were suspended in […] PBS, and then […] 95% ethanol was added while vortexing. […] Incubation was continued at 37 °C for 30 min. Cellular DNA was then stained by applying […] propidium iodide (50 μg/mL) for 30 min at 25 °C. Stained cells were analyzed on a FACScan flow cytometer for relative DNA content based on increased red fluorescence.

HepG2 cells [2] = experiment: Transwell migration and invasion assay; format: cell-based, human; conditions: HepG2, dose-dependent
Description: For the migration assay, HepG2 cells were seeded into the upper Transwell chamber at a density of 2 × 10^4 cells and incubated for 24 h. For the invasion assay, 100 μL of Matrigel: serum-free media (1:4) mixture was placed on the filter membrane in the upper chamber and incubated (37 °C, 4 h) to seed cells. Cells were exposed to MBP-11901 and sorafenib for 2 h. Then, the medium in the upper chamber was changed to serum-free medium, whereas the medium in the lower chamber was changed to a medium containing 10% FBS. The medium was replaced once every 2–3 d. Following 6 d incubation, the upper surfaces of the filters were scraped 5 times with cotton swabs to remove nonmigrated cells, whereas cells crossing the membrane into the lower chamber were stained with 1% (w/v) crystal violet for 30 min. Crystal violet was removed and cells were washed with tap water. For the migration assay, after drying at 25 °C, 10% acetic acid solution was added to cells, and left to react in a shaker for 30 min. Absorbance was measured at 590 nm using a microplate reader (SpectraMax i3, Molecular Devices). For the invasion assay, the number of migrated cells was counted.

HepG2 cells [3] = experiment: Colony formation assay; format: cell-based, human
Description: HepG2 cells were seeded in a 6-well plate at a density of 2 × 10^4 cells/well and incubated for 24 h. Cells were treated with MBP-11901 and sorafenib for 2 h and media was changed with fresh one. Cells were incubated for 8 d and the medium was replaced once every 2–3 d. The medium was carefully removed, cells were washed with PBS, and fixed with 100% methanol for 30 min. After removing methanol, cells were stained with 0.5% (w/v) crystal violet for 30 min, and washed with tap water. The plate was dried at 25 °C and images were captured under a microscope (Nikon Eclipse Ts2, Tokyo, Japan). The stained area was automatically measured using ImageJ. This experiment was independently performed 3 times. The area of the colony was calculated as a percentage of the total area of the well.

[4] = system: phosphorylation of FLT3, VEGFR2, c-KIT, PDGFRβ and downstream signals in HepG2 cells; experiment: Western blot of kinase phosphorylation; format: cell-based, human; conditions: HepG2, exposure 10 to 120 min, concentration-dependent
Description: HepG2 cells were seeded in a 60 mm^2 culture dish at a density of 1.5 × 10^6 cells/dish and incubated for 24 h. […] Cells were harvested and protein extraction and Western blotting methods were performed as previously described. Membranes were incubated using the following diluted primary antibodies; PARP (1:1000 dilution), caspase-3 (1:1000 dilution), cleaved caspase-3 (1:1000 dilution), pFLT3 (1:500 dilution), Ras (1:1000 dilution), pc-Raf (1:1000 dilution), pMEK1/2 (1:1000 dilution), pERK1/2 (1:1000 dilution), pAKT (1:1000 dilution), pmTOR (1:1000 dilution), pVEGFR2 (1:1000 dilution), pPDGFR β (1:2000 dilution), and β-actin (1:1000 dilution) in Tris-HCl-based buffer containing 0.2% Tween-20 (T1027, Biosesang, Seongnam, Korea) (TBS-T; pH 7.5). Membranes were then incubated with horseradish-conjugated secondary antibodies (1:5000, Cell Signaling Technologies, Beverly, MA, USA) for 1 h at 25 °C. After washing with TBS-T, immunoreactive bands were visualized using the chemiluminescence western imaging system (Supernova-Q1800TM, Centronics, Daejeon, Korea). Band intensities were measured using ImageJ (Version 1.50i; US National Institutes of Health, Bethesda, MD, USA) and were normalized to β-actin.

Hep3B xenograft tumor = experiment: Hep3B subcutaneous xenograft; format: in vivo, mouse; conditions: once every 2 d, 12 administrations
Text: (§1) We further verified the effectiveness of MBP-11901 by constructing a mouse model in which Hep3B and Huh-7 were subcutaneously transplanted in addition to the human liver cancer cell line HepG2. In the case of Hep3B, the administration was initiated at a tumor volume of about 300 mm^3, once every 2 d, and the experiment was terminated after a total of 12 administrations (Figure S5). […] In contrast, tumors had completely disappeared in 1 out of 6 animals in the MBP-11901 group; 1 had only a trace of a tumor measuring approximately 30 mm^3, whereas the average tumor volume in the 6 animals was approximately 100 mm^3. […] Unlike Nexavar®, there were no side-effects relating to drug resistance or rapid tumor growth.

Huh-7 xenograft tumor = experiment: Huh-7 subcutaneous xenograft; format: in vivo, mouse; conditions: Huh-7 subcutaneously implanted model
Text: as §1

HepG2 xenograft tumor [5] = conditions: for Tumor growth inhibition rate (%): 42 d (calculated on day 41); for Body weight loss rate (%): day 41
HepG2 xenograft tumor [6] = experiment: HepG2 subcutaneous xenograft, dose study (19 d); conditions: for Toxic deaths/total: 19 d; for Body weight loss rate (%) / Tumor growth inhibition rate (%): day 19; for tumor weight per mouse: after 19 d, vehicle control 0.31 ± 0.089 g; for average tumor volume: end of 9 administrations, start 200 mm^3, saline approx. 1000 mm^3
[7] = tumors, compared with vehicle control

NCC(N)C(=O)Nc1ccc(-c2nc3ccccc3s2)cc1 (stereo not drawn) [MBP-11901]
SubG1 (HepG2 cells [1]; 8 h): 10.26% | SubG1 (HepG2 cells [1]; 16 h): 17.39% | SubG1 (HepG2 cells [1]; 24 h): 34.68% | migration and invasion of tumor cells (HepG2 cells [2]): highly inhibited | colony formation (HepG2 cells [3]; HepG2, 5 μM): significant reduction | colony growth (HepG2 cells [3]; HepG2, high concentrations, compared with sorafenib): almost no colony growth was observed | kinase phosphorylation [4]: inhibited | animals in which tumors had completely disappeared (Hep3B xenograft tumor): 1 out of 6 | average tumor volume (Hep3B xenograft tumor; start about 300 mm^3, saline approx. 1400 mm^3): approximately 100 mm^3 | tumor disappearance (Huh-7 xenograft tumor): did not result in tumor disappearance | tumor weight (Huh-7 xenograft tumor): significantly reduced | Toxic deaths/total (HepG2 xenograft tumor [5]; 82 mg/kg oral 1T/2D, 42 d): 0/6 | Tumor growth inhibition rate (%) (HepG2 xenograft tumor [5]; 82 mg/kg oral 1T/2D): 99.82 ± 0.33% | Body weight loss rate (%) (HepG2 xenograft tumor [5]; 82 mg/kg oral 1T/2D): 1.85 ± 3.70% | Toxic deaths/total (HepG2 xenograft tumor [5]; 82 mg/kg oral 1T/3D, 42 d): 0/6 | Tumor growth inhibition rate (%) (HepG2 xenograft tumor [5]; 82 mg/kg oral 1T/3D): 99.51 ± 0.81% | Body weight loss rate (%) (HepG2 xenograft tumor [5]; 82 mg/kg oral 1T/3D): −0.43 ± 3.76 % | Toxic deaths/total (HepG2 xenograft tumor [5]; 82 mg/kg oral 1T/4D, 42 d): 0/6 | Tumor growth inhibition rate (%) (HepG2 xenograft tumor [5]; 82 mg/kg oral 1T/4D): 99.48 ± 0.60% | Body weight loss rate (%) (HepG2 xenograft tumor [5]; 82 mg/kg oral 1T/4D): −4.29 ± 0.59 % | histological analysis of the liver and kidney (HepG2 xenograft tumor [5]; 42 d): no apparent toxicity | animals in which tumors had disappeared, out of a total of 6 (HepG2 xenograft tumor [5]; all MBP-11901 groups, after 42 d): 3–4 | GPT values (HepG2 xenograft tumor [5]; serum, MBP-11901 1T/3D and 1T/4D groups): significantly outside the normal range | Toxic deaths/total (HepG2 xenograft tumor [6]; 40 mg/kg oral once every 2 d): 0/8 | Body weight loss rate (%) (HepG2 xenograft tumor [6]; 40 mg/kg oral once every 2 d): 2.00 ± 2.47 % | Tumor growth inhibition rate (%) (HepG2 xenograft tumor [6]; 40 mg/kg oral once every 2 d): 61.41 ± 0.45% | tumor weight per mouse (HepG2 xenograft tumor [6]; 40 mg/kg): 0.082 ± 0.063 g | average tumor volume (HepG2 xenograft tumor [6]; 40 mg/kg): approximately 350 mm^3 | animals in which the tumor completely disappeared (HepG2 xenograft tumor [6]; 60 mg/kg group): 3 out of 8 | Toxic deaths/total (HepG2 xenograft tumor [6]; 60 mg/kg oral once every 2 d): 0/8 | Body weight loss rate (%) (HepG2 xenograft tumor [6]; 60 mg/kg oral once every 2 d): 1.50 ± 1.97 % | Tumor growth inhibition rate (%) (HepG2 xenograft tumor [6]; 60 mg/kg oral once every 2 d): 85.26 ± 0.36% | tumor weight per mouse (HepG2 xenograft tumor [6]; 60 mg/kg): 0.025 ± 0.035 g | average tumor volume (HepG2 xenograft tumor [6]; 60 mg/kg): ~150 mm^3 | animals in which the tumor completely disappeared (HepG2 xenograft tumor [6]; 82 mg/kg group): 4 out of 8 | Toxic deaths/total (HepG2 xenograft tumor [6]; 82 mg/kg oral once every 2 d): 0/8 | Body weight loss rate (%) (HepG2 xenograft tumor [6]; 82 mg/kg oral once every 2 d): 1.78 ± 4.40 % | Tumor growth inhibition rate (%) (HepG2 xenograft tumor [6]; 82 mg/kg oral once every 2 d): 92.54 ± 0.02% and 92.54 ± 0.0 % | tumor weight per mouse (HepG2 xenograft tumor [6]; 82 mg/kg): 0.011 ± 0.009 g | average tumor volume (HepG2 xenograft tumor [6]; 82 mg/kg): ~70 mm^3 | apoptosis in tumors (cleaved caspase-3) (HepG2 xenograft tumor [6]; [7]): high level of apoptosis | proliferation of tumor cells (Ki-67) (HepG2 xenograft tumor [6]; [7]): significant reduction
